Assay results as given in patent publication US20240294545A1 (CSPC Zhongqi Pharmaceutical Technology (Shijiazhuang) Co., …, priority 2020, published 2024).

These compounds were tested against ATM (Homo sapiens (Human), UniProt Q13315) (assay: Caliper mobility shift assay for ATM). Settings: read-out: IC50 of inhibitory activity on ATM kinase.
Assay type: biochemical
Protocol: 1.2 Determination of the Inhibitory Activities of Compounds on ATM: Caliper Mobility Shift Assay for ATM
To a 96-well plate, 98 μL of DMSO and 2 μL of the 10 mM stock solution were added and mixed evenly so that the concentration of the solution was 200 μM.
Based on the inhibitory rates of the compound at different concentrations, IC50 was calculated according to the formula: Y=Bottom+(Top−Bottom)/(1+(IC50/X)^HillSlope).

Sequence of ATM (Q13315 whole entry): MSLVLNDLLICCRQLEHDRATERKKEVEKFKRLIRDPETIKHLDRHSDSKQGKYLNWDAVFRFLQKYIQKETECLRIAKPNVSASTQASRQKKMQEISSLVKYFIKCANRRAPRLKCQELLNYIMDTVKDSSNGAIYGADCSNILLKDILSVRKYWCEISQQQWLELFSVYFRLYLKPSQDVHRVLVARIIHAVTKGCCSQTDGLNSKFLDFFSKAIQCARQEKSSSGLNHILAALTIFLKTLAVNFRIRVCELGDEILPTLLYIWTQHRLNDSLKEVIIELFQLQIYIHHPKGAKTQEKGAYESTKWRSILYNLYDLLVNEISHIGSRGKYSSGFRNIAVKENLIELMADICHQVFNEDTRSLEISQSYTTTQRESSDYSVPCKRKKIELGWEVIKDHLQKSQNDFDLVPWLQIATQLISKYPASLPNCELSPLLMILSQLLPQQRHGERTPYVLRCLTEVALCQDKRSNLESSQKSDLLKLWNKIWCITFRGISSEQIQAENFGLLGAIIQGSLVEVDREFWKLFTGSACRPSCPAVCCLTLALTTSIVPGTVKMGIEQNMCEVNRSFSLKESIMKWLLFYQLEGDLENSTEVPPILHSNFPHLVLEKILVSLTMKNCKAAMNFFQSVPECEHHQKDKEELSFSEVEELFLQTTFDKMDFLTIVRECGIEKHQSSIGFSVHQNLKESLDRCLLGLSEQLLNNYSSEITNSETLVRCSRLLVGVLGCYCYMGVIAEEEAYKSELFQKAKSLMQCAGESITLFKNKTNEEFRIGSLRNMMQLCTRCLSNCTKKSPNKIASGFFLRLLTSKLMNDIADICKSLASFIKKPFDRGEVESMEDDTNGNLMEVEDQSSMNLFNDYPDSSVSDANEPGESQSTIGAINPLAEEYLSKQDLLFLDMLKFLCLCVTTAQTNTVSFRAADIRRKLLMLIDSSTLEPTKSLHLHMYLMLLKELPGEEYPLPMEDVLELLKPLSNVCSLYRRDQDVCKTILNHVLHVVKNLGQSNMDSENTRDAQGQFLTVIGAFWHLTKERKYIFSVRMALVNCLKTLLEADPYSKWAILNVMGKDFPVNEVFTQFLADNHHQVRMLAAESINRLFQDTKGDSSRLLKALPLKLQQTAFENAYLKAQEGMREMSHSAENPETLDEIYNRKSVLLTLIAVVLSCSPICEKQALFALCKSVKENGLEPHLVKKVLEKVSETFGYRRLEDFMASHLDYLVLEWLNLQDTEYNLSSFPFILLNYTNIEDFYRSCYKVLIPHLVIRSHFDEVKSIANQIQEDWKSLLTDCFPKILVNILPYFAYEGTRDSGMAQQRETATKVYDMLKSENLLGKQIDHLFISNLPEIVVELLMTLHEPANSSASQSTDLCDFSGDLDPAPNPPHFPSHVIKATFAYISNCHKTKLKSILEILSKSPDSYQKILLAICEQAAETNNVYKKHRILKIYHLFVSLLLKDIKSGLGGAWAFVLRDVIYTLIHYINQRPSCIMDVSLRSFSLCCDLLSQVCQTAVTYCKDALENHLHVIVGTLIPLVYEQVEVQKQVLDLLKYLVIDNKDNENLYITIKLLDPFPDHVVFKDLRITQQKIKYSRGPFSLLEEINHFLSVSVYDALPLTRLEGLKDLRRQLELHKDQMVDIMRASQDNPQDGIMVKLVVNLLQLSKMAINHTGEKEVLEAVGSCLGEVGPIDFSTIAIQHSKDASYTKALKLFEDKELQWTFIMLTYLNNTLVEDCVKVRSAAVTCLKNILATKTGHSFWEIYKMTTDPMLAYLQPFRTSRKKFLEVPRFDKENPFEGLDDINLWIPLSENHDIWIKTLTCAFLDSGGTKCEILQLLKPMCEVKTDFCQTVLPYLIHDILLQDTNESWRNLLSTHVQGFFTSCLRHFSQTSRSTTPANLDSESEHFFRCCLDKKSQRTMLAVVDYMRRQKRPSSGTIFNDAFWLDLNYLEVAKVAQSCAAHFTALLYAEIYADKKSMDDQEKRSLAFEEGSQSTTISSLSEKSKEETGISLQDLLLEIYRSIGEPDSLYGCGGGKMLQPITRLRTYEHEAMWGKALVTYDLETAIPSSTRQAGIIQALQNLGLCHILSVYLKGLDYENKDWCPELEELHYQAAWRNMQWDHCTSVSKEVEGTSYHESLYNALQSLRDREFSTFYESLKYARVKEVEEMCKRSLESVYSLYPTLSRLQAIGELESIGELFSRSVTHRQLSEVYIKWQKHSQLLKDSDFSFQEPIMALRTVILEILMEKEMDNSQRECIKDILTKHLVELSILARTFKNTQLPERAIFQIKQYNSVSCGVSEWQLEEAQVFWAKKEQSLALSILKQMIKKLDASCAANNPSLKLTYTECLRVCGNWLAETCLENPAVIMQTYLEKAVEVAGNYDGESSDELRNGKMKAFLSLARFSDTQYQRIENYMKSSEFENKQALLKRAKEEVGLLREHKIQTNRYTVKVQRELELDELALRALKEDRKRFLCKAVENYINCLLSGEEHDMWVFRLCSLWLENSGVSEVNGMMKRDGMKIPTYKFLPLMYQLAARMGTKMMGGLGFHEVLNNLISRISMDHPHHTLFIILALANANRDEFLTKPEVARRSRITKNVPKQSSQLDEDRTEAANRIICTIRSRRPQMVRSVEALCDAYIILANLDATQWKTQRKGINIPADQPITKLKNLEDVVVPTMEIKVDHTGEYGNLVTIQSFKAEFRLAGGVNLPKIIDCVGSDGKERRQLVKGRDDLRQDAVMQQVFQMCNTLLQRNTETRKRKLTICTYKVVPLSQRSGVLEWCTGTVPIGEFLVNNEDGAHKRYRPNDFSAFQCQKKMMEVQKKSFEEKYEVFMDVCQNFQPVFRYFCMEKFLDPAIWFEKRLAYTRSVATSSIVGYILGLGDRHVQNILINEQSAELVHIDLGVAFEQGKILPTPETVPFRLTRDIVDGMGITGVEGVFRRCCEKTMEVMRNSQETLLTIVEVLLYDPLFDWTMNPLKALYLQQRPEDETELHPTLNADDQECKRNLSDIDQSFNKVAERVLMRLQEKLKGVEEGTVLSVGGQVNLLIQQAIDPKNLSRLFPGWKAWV

IC50 [nM] | SMILES
0.71 | Cn1c(=O)n2c3c4c(c(-c5ccc(OCCCN6CCCCC6)nc5)c(F)cc4ncc31)OCCC2 [Compound A-154]
0.79 | C[C@H]1COc2c(-c3ccc(OCCCN4CCCCC4)nc3)c(F)cc3ncc4c(c23)n1c(=O)n4C [Example A-1, (S)-6-fluoro-2,10-dimethyl-7-(6-(3-(piperidin-1-yl)propoxy)pyridin-3-yl)-9,10-dihydro-8-oxa-2,4,10a-triazanaphtho[2,1,8-cde]azulen-1(2H)-one]
0.9 | C[C@@H]1COc2c(-c3ccc(OCCCN4CCCCC4)nc3)c(F)cc3ncc4c(c23)n1c(=O)n4C [Example A-4, (R)-6-fluoro-2,10-dimethyl-7-(6-(3-(piperidin-1-yl)propoxy)pyridin-3-yl)-9,10-dihydro-8-oxa-2,4,10a-triazanaphtho[2,1,8-cde]azulen-1(2H)-one]
0.2 | CC(C)C[C@H]1COc2c(-c3ccc(OCCCN4CCCCC4)nc3)c(F)cc3ncc4c(c23)n1c(=O)n4C [Example A-9, (S)-6-fluoro-10-isobutyl-2-methyl-7-(6-(3-(piperidin-1-yl)propoxy)pyridin-3-yl)-9,10-dihydro-8-oxa-2,4,10a-triazanaphtho[2,1,8-cde]azulen-1(2H)-one]
0.54 | Cn1c(=O)n2c3c4c(c(-c5ccc(OCCCN6CCCCC6)nc5)c(F)cc4ncc31)OCC21CC1 [Example A-11, 6-fluoro-2-methyl-7-(6-(3-(piperidin-1-yl)propoxy)pyridin-3-yl)-2,9-dihydro-1H-spiro[8-oxa-2,4,10a-triazanaphtho[2,1,8-cde]azulene-10,1-cyclopropan]-1-one]
0.4 | Cn1c(=O)n2c3c4c(c(-c5ccc(OCCCN6CCCCC6)nc5)c(F)cc4ncc31)OC[C@@H]2Cc1ccccc1 [Example A-13, (S)-10-benzyl-6-fluoro-2-methyl-7-(6-(3-(piperidin-1-yl)propoxy)pyridin-3-yl)-9,10-dihydro-8-oxa-2,4,10a-triazanaphtho[2,1,8-cde]azulen-1(2H)-one]
0.42 | Cn1c(=O)n2c3c4c(c(-c5ccc(OCCCN6CCCCC6)nc5)c(F)cc4ncc31)OC[C@H]2Cc1ccccc1 [Example A-14, (R)-10-benzyl-6-fluoro-2-methyl-7-(6-(3-(piperidin-1-yl)propoxy)pyridin-3-yl)-9,10-dihydro-8-oxa-2,4,10a-triazanaphtho[2,1,8-cde]azulen-1(2H)-one]
0.42 | CC[C@H]1COc2c(-c3ccc(OCCCN4CCCCC4)nc3)c(F)cc3ncc4c(c23)n1c(=O)n4C [Example A-23, (S)-10-ethyl-6-fluoro-2-methyl-7-(6-(3-(piperidin-1-yl)propoxy)pyridin-3-yl)-9,10-dihydro-8-oxa-2,4,10a-triazanaphtho[2,1,8-cde]azulen-1(2H)-one]
0.28 | Cn1c(=O)n2c3c4c(c(-c5ccc(OCCCN6CCCCC6)nc5)c(F)cc4ncc31)OCC2C1CC1 (stereo not shown) [Example A-27, 10-cyclopropyl-6-fluoro-2-methyl-7-(6-(3-(piperidin-1-yl)propoxy)pyridin-3-yl)-9,10-dihydro-8-oxa-2,4,10a-triazanaphtho[2,1,8-cde]azulen-1(2H)-one]
0.28 | Cn1c(=O)n2c3c4c(c(-c5ccc(OCCCN6CCCCC6)nc5)c(F)cc4ncc31)OCC21CCC1 [Example A-28, 6-fluoro-2-methyl-7-(6-(3-(piperidin-1-yl)propoxy)pyridin-3-yl)-2,9-dihydro-1H-spiro[8-oxa-2,4,10a-triazanaphtho[2,1,8-cde]azulene-10,1′-cyclobutan]-1-one]
0.27 | COc1cc2ncc3c4c2c(c1-c1cnn(C)c1)OCC(c1ccccn1)n4c(=O)n3C (stereo not shown) [Example A-30, 6-methoxy-2-methyl-7-(1-methyl-1H-pyrazol-4-yl)-10-(pyridin-2-yl)-9,10-dihydro-8-oxa-2,4,10a-triazanaphtho[2,1,8-cde]azulen-1(2H)-one]
0.94 | COc1cc2ncc3c4c2c(c1-c1ccc(OCCCN2CCCCC2)nc1)OC[C@@H](C)n4c(=O)n3C [Example A-32, (R)-6-methoxy-2,10-dimethyl-7-(6-(3-(piperidin-1-yl)propoxy)pyridin-3-yl)-9,10-dihydro-8-oxa-2,4,10a-triazanaphtho[2,1,8-cde]azulen-1(2H)-one]
0.86 | COCC1COc2c(-c3ccc(OCCCN4CCCCC4)nc3)c(F)cc3ncc4c(c23)n1c(=O)n4C (stereo not shown) [Example A-49, 6-fluoro-10-(methoxymethyl)-2-methyl-7-(6-(3-(piperidin-1-yl)propoxy)pyridin-3-yl)-9,10-dihydro-8-oxa-2,4,10a-triazanaphtho[2,1,8-cde]azulen-1(2H)-one]
0.26 | Cn1c(=O)n2c3c4c(c(-c5ccc(OCCCN6CCCCC6)nc5)ccc4ncc31)OCC2(C)C [Example A-67, 2,10,10-trimethyl-7-(6-(3-(piperidin-1-yl)propoxy)pyridin-3-yl)-9,10-dihydro-8-oxa-2,4,10a-triazanaphtho[2,1,8-cde]azulen-1(2H)-one]
0.92 | C[C@H]1COc2c(-c3ccc(N4CCC(N(C)C)CC4)nc3)c(F)cc3ncc4c(c23)n1c(=O)n4C [Example A-159, (S)-7-(6-(4-(dimethylamino)piperidin-1-yl)pyridin-3-yl)-6-fluoro-2,10-dimethyl-9,10-dihydro-8-oxa-2,4,10a-triazanaphtho[2,1,8-cde]azulen-1(2H)-one]
0.32 | Cn1c(=O)n2c3c4c(c(-c5ccc(OCCCN6CC[C@H](F)C6)nc5)c(F)cc4ncc31)OCC21CCC1 [Example A-161, (S)-6-fluoro-7-(6-(3-(3-fluoropyrrolidin-1-yl)propoxy)pyridin-3-yl)-2-methyl-2,9-dihydro-1H-spiro[8-oxa-2,4,10a-triazanaphtho[2,1,8-cde]azulene-10,1′-cyclobutan]-1-one]
0.36 | Cn1c(=O)n2c3c4c(c(-c5ccc(OCCCN6CCCC6)nc5)c(F)cc4ncc31)OCC21CCC1 [Example A-162, 6-fluoro-2-methyl-7-(6-(3-(pyrrolidin-1-yl)propoxy)pyridin-3-yl)-2,9-dihydro-1H-spiro[8-oxa-2,4,10a-triazanaphtho[2,1,8-cde]azulene-10,1′-cyclobutan]-1-one]
0.42 | C[C@H]1COc2c(-c3ccc(OCCCN4CCC5(CC4)COC5)nc3)c(F)cc3ncc4c(c23)n1c(=O)n4C [Example A-171, (S)-7-(6-(3-(2-oxa-7-azaspiro[3.5]nonan-7-yl)propoxy)pyridin-3-yl)-6-fluoro-2,10-dimethyl-9,10-dihydro-8-oxa-2,4,10a-triazanaphtho[2,1,8-cde]azulen-1(2H)-one]
0.17 | Cn1c(=O)n2c3c4c(c(-c5ccc(OCCCN6CCCCC6)nc5)ccc4ncc31)OCC21CCC1 [Example A-176, 2-methyl-7-(6-(3-(piperidin-1-yl)propoxy)pyridin-3-yl)-2,9-dihydro-1H-spiro[8-oxa-2,4,10a-triazanaphtho[2,1,8-cde]azulene-10,1′-cyclobutan]-1-one]
0.25 | C[C@H]1COc2c(-c3ccc(OCCCN(C)C)nc3)ccc3ncc4c(c23)n1c(=O)n4C [Example A-178, (S)-7-(6-(3-(dimethylamino)propoxy)pyridin-3-yl)-2,10-dimethyl-9,10-dihydro-8-oxa-2,4,10a-triazanaphtho[2,1,8-cde]azulen-1(2H)-one]
0.37 | CN(C)CCCOc1ccc(-c2ccc3ncc4c5c3c2OCC2(CC2)n5c(=O)n4C)cn1 [Example A-179, 7-(6-(3-(dimethylamino)propoxy)pyridin-3-yl)-2-methyl-2,9-dihydro-1H-spiro[8-oxa-2,4,10a-triazanaphtho[2,1,8-cde]azulene-10,1′-cyclopropan]-1-one]
0.26 | CN(C)CCCOc1ccc(-c2ccc3ncc4c5c3c2OCC(C)(C)n5c(=O)n4C)cn1 [Example A-180, 7-(6-(3-(dimethylamino)propoxy)pyridin-3-yl)-2,10,10-trimethyl-9,10-dihydro-8-oxa-2,4,10a-triazanaphtho[2,1,8-cde]azulen-1(2H)-one]
0.72 | C[C@@H]1COc2c(-c3ccc(OCCCN(C)C)nc3)ccc3ncc4c(c23)n1c(=O)n4C [Example A-181, (R)-7-(6-(3-(dimethylamino)propoxy)pyridin-3-yl)-2,10-dimethyl-9,10-dihydro-8-oxa-2,4,10a-triazanaphtho[2,1,8-cde]azulen-1(2H)-one]
0.25 | CN(C)CCCOc1ccc(-c2ccc3ncc4c5c3c2OCC2(CCC2)n5c(=O)n4C)cn1 [Example A-185, 7-(6-(3-(dimethylamino)propoxy)pyridin-3-yl)-2-methyl-2,9-dihydro-1H-spiro[8-oxa-2,4,10a-triazanaphtho[2,1,8-cde]azulene-10,1′-cyclobutan]-1-one]
0.38 | CC[C@H]1COc2c(-c3ccc(OCCCN4CCCCC4)nc3)ccc3ncc4c(c23)n1c(=O)n4C [Example A-186, (S)-10-ethyl-2-methyl-7-(6-(3-(piperidin-1-yl)propoxy)pyridin-3-yl)-9,10-dihydro-8-oxa-2,4,10a-triazanaphtho[2,1,8-cde]azulen-1(2H)-one]
0.22 | CC[C@@H]1COc2c(-c3ccc(OCCCN4CCCCC4)nc3)ccc3ncc4c(c23)n1c(=O)n4C [Example A-187, (R)-10-ethyl-2-methyl-7-(6-(3-(piperidin-1-yl)propoxy)pyridin-3-yl)-9,10-dihydro-8-oxa-2,4,10a-triazanaphtho[2,1,8-cde]azulen-1(2H)-one]
0.4 | CC[C@@H]1COc2c(-c3ccc(OCCCN(C)C)nc3)ccc3ncc4c(c23)n1c(=O)n4C [Example A-188, (R)-7-(6-(3-(dimethylamino)propoxy)pyridin-3-yl)-10-ethyl-2-methyl-9,10-dihydro-8-oxa-2,4,10a-triazanaphtho[2,1,8-cde]azulen-1(2H)-one]

SMILES | IC50 [nM]
Cn1c(=O)n2c3c4c(c(-c5ccc(OCCCN6CC[C@H](C#N)C6)nc5)c(F)cc4ncc31)OCC21CCC1 [Example A-160] | 0.43
